Assays:
[1] = tested on: Colorectal carcinoma HCT116 cells; assay: Cell death assay (MTT) in combination with HGS ETR1; format: cell-based; conditions: with HGS ETR1 30 ng/ml, 72 hours, read-out: HCT116+ mapatubimap EC50
How it was run: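 HCT116 cells (2000/well, McCoy's 5a, 10% FBS) were treated 24 h after plating with compound plus the agonistic TRAIL receptor antibody mapatumumab (ETR1, 30 ng/ml) for 72 hours. Viability was read by MTT. EC50 was the concentration giving 50% survival relative to untreated controls.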

c-IAP1 = biological target: T1, c-IAP1 (Homo sapiens, UniProt Q13490); assay: Fluorescence polarization-based competition assay, c-IAP1; format: binding; conditions: FP assay, ki derived from IC50
T1 construct: GST (N); made in house; host or cells: E. coli DH5α
T1 sequence (Q13490 251-363): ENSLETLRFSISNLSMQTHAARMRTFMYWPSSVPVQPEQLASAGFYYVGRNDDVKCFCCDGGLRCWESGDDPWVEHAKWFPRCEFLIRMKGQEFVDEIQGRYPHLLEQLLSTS
How it was run: (§1)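 Competition of FITC-labelled probe (2 nM) binding to the BIR domain, protein set at 80% of maximal FP signal; 10-point compound dilutions in 50 mM HEPES pH 7.5, γ-globulin, 2 mM DTT, 1% DMSO, 1 h at room temperature in the dark. IC50 from sigmoidal fit; Ki derived from IC50.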

cIAP2 = biological target: T2, cIAP2 (Homo sapiens, UniProt Q13489); assay: Fluorescence polarization-based competition assay, cIAP2; format: binding; conditions: FP assay, ki derived from IC50
T2 construct: GST (N); made in house; host or cells: E. coli DH5α
T2 sequence (Q13489 236-349): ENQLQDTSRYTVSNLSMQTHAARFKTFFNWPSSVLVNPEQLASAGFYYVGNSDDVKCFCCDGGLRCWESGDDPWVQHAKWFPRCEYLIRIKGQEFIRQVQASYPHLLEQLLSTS
Method: Binding of compounds of Formula 1 to target BIR domains was measured using a fluorescence-polarization (FP) assay. Fluorescence-polarization was evaluated using a GENios microplate reader (TECAN) Pro instrument with the excitation filter set at 485 nm and the emission filter set at 535 nm. The final amount of protein used in the assay corresponds to the amount of protein necessary to obtain 80% of the maximum FP value in a P1 or P2 fluorescent (FITC) probe saturation experiment. The compounds potency (IC50) and selectivity, was assessed in the presence of the amount of target protein established, fluorescent probe, and a 10 point serial dilution in assay buffer (50 mM Hepes, pH 7.5, 250 mcg/mL γ-globulin, 2 mM DTT, 1% DMSO) of the selected compounds.
Assays were carried out in duplicate using untreated black 96-well plates (Corning #3915) and a total volume of 100 microliters, containing 25 microliters of fluorescent probe at a final concentration of 2 nM in assay buffer, 25 microliters of diluted compound, 25 microliters of BIR protein into assay buffer and 25 microliters of assay buffer. Buffer only (blank) or probe only in buffer (G-factor) were used as controls for calibration. The plate was incubated at room temperature in the dark for one hour and FP values in millipolarization units (mP) were recorded using Genios Pro FP reader.
The measured FP values (mP) were then plotted against compound concentration, and IC50 values were calculated based on a sigmoidal dose-response (variable-slope) curve fit using GraphPad Prism version 4.02 for Windows, GraphPad Software, San Diego Calif. USA and/or CambridgeSoft BioAssay Enterprise Version 10.1. The IC50 value is the concentration of test compound at which 50% of the tracer was displaced. ki values were derived from the calculated IC50 values as described above and according to the equation described in Nikolovska-Coleska, Z. (2004) Anal Biochem 332, 261-273. The results are presented in Table 2, wherein A=less than 25 nM; B=less than 250 nM; C=less than 1000 nM; and D=greater than 1000 nM.

XIAP = biological target: T3, XIAP (Homo sapiens, UniProt P98170); assay: Fluorescence polarization-based competition assay, XIAP; format: binding; conditions: FP assay, ki derived from IC50
T3 construct: fused on or other part: GST tag at the N-terminus (pGEX4T vectors)
T3 sequence (P98170 246-497 limits assumed): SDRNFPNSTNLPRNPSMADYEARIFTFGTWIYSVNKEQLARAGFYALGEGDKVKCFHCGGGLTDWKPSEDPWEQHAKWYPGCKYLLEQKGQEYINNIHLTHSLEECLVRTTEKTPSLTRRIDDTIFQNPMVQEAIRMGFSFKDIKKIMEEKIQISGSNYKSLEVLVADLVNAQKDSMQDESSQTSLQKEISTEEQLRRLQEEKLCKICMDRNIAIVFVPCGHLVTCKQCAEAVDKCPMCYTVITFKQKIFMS
How it was run: as §1

| Ki (c-IAP1) | Ki (cIAP2) | Ki (XIAP) | SMILES | EC50 [1] |
| --- | --- | --- | --- | --- |
| < 25 nM | < 25 nM | < 250 nM | CN[C@@H](C)C(=O)N[C@H](C(=O)N1C[C@@H](NC(=O)c2ccccc2)C[C@H]1CN(CCc1ccc(F)cc1)C(=O)c1cn(C)cn1)C(C)(C)C [Compound 86] | < 50 nM |
| < 25 nM | < 25 nM | < 250 nM | CN[C@@H](C)C(=O)N[C@H](C(=O)N1C[C@@H](NC(=O)c2ccccc2)C[C@H]1CN(CCc1ccc(F)cc1)C(=O)c1cn(-c2ccc(F)cc2)cn1)C(C)(C)C [Compound 87] | < 250 nM |
| < 25 nM | < 25 nM | < 250 nM | CN[C@@H](C)C(=O)N[C@H](C(=O)N1CCC[C@H]1CN(CCc1ccc(F)cc1)C(=O)c1cc(-c2ccccc2)[nH]n1)C(C)(C)C [Compound 88] | < 250 nM |
| < 25 nM | < 25 nM | < 250 nM | CN[C@@H](C)C(=O)N[C@H](C(=O)N1C[C@@H](NC(=O)c2ccccc2)C[C@H]1CN(CCc1ccc(F)cc1)C(=O)c1cn2c(n1)CCC2)C(C)(C)C [Compound 89] | < 50 nM |
| < 25 nM | < 25 nM | < 250 nM | CN[C@@H](C)C(=O)N[C@H](C(=O)N1CCC[C@H]1CN(CCc1ccc(F)cc1)C(=O)c1cnn(-c2ccccc2)c1)C(C)(C)C [Compound 90] | < 250 nM |
| < 25 nM | < 25 nM | < 250 nM | CN[C@@H](C)C(=O)N[C@H](C(=O)N1CCC[C@H]1CN(CCc1ccc(F)cc1)C(=O)c1cn(C2CCCC2)cn1)C(C)(C)C [Compound 91] | < 50 nM |
| < 25 nM | < 250 nM | < 1000 nM | CN[C@@H](C)C(=O)N[C@H](C(=O)N1CCC[C@H]1CN(CCc1ccc(F)cc1)C(=O)c1cncn1C)C(C)(C)C [Compound 92] | < 250 nM |
| < 25 nM | < 25 nM | < 250 nM | CN[C@@H](C)C(=O)N[C@H](C(=O)N1CCC[C@H]1CN(CCc1ccc(F)cc1)C(=O)c1cn(C2CCCCC2)cn1)C(C)(C)C [Compound 93] | < 50 nM |
| < 25 nM | < 25 nM | < 250 nM | CN[C@@H](C)C(=O)N[C@H](C(=O)N1CCC[C@H]1CN(CCc1ccc(F)cc1)C(=O)c1cn(C(C)C)cn1)C(C)(C)C [Compound 94] | < 50 nM |
| < 25 nM | < 25 nM | < 250 nM | CN[C@@H](C)C(=O)N[C@H](C(=O)N1CCC[C@H]1CN(CCc1ccc(F)cc1)C(=O)c1cn(C2CCOCC2)cn1)C(C)(C)C [Compound 95] | < 50 nM |
| < 25 nM | < 25 nM | < 250 nM | CN[C@@H](C)C(=O)N[C@H](C(=O)N1C[C@@H](Oc2ccc(OC)cc2)C[C@H]1CN(CCc1ccc(F)cc1)C(=O)c1cn(C)cn1)C(C)(C)C [Compound 96] | < 50 nM |
| < 25 nM | < 25 nM | < 250 nM | CN[C@@H](C)C(=O)N[C@H](C(=O)N1C[C@@H](Oc2ccc(OC(F)(F)F)cc2)C[C@H]1CN(CCc1ccc(F)cc1)C(=O)c1cn(C)cn1)C(C)(C)C [Compound 97] | < 50 nM |
| < 25 nM | < 25 nM | < 250 nM | CN[C@@H](C)C(=O)N[C@H](C(=O)N1CCC[C@H]1CN(CCc1ccc(F)cc1)C(=O)c1cc(C)on1)C(C)(C)C [Compound 98] | < 250 nM |
| < 25 nM | < 25 nM | < 250 nM | CN[C@@H](C)C(=O)N[C@H](C(=O)N1C[C@@H](Oc2ccc(F)cc2)C[C@H]1CN(CCc1ccc(F)cc1)C(=O)c1cn(C)cn1)[C@@H](C)OC [Compound 99] | < 50 nM |
| < 25 nM | < 25 nM | < 250 nM | CN[C@@H](C)C(=O)N[C@H](C(=O)N1C[C@@H](Oc2ccc(F)cc2)C[C@H]1CN(CCc1ccc(F)cc1)C(=O)c1cn2cccnc2n1)[C@@H](C)OC [Compound 100] | < 250 nM |
| < 25 nM | < 25 nM | < 250 nM | CN[C@@H](C)C(=O)N[C@H](C(=O)N1C[C@@H](Oc2ccc(F)cc2)C[C@H]1CN(CCc1ccc(F)cc1)C(=O)c1cn2ccccc2n1)[C@@H](C)OC [Compound 102] | < 50 nM |
| < 25 nM | < 25 nM | < 250 nM | CN[C@@H](C)C(=O)N[C@H](C(=O)N1CCC[C@H]1CN(CCc1ccc(F)cc1)C(=O)c1cn2cc(F)cnc2n1)C1CCCCC1 [Compound 103] | < 50 nM |
| < 25 nM | < 25 nM | < 250 nM | CN[C@@H](C)C(=O)N[C@H](C(=O)N1CCC[C@H]1CN(CCc1ccc(F)cc1)C(=O)c1cn(-c2ccc(F)cc2)cn1)C1CCCCC1 [Compound 104] | < 50 nM |
| < 25 nM | < 25 nM | < 25 nM | CN[C@@H](C)C(=O)N[C@H](C(=O)N1C[C@@H](Oc2ccc(OC)cc2)C[C@H]1CN(CCc1ccc(F)cc1)C(=O)c1cn2ccccc2n1)C(C)(C)C [Compound 105] | < 50 nM |
| < 25 nM | < 25 nM | < 250 nM | CN[C@@H](C)C(=O)N[C@H](C(=O)N1C[C@@H](Oc2ccncc2)C[C@H]1CN(CCc1ccc(F)cc1)C(=O)c1cn2ccccc2n1)C(C)(C)C [Compound 106] | < 50 nM |
| < 25 nM | < 25 nM | < 250 nM | CN[C@@H](C)C(=O)N[C@H](C(=O)N1C[C@@H](Oc2ccc(F)cc2)C[C@H]1CN(CCc1ccc(F)cc1)C(=O)c1cn2cc(F)cnc2n1)[C@@H](C)OC [Compound 107] | < 50 nM |
| < 25 nM | < 25 nM | < 250 nM | CN[C@@H](C)C(=O)N[C@H](C(=O)N1C[C@@H](Oc2ccc(F)cc2)C[C@H]1CN(CCc1ccc(F)cc1)C(=O)c1cn(-c2ccc(F)cc2)cn1)[C@@H](C)OC [Compound 108] | < 250 nM |
| < 25 nM | < 25 nM | < 250 nM | CN[C@@H](C)C(=O)N[C@H](C(=O)N1CCC[C@H]1CN(CCc1ccc(F)cc1)C(=O)c1ncc(-c2ccccc2)[nH]1)C(C)(C)C [Compound 109] | < 50 nM |
| < 25 nM | < 25 nM | < 250 nM | CN[C@@H](C)C(=O)N[C@H](C(=O)N1CCC[C@H]1CN(CCc1ccc(F)cc1)C(=O)c1cn(C)nn1)C1CCCCC1 [Compound 110] | < 50 nM |
| < 25 nM | < 25 nM | < 25 nM | CN[C@@H](C)C(=O)N[C@H](C(=O)N1C[C@@H](Oc2ccc(OC(F)(F)F)cc2)C[C@H]1CN(CCc1ccc(F)cc1)C(=O)c1cn2ccccc2n1)C(C)(C)C [Compound 111] | < 50 nM |
| < 25 nM | < 25 nM | < 250 nM | CN[C@@H](C)C(=O)N[C@H](C(=O)N1C[C@@H](NC(=O)c2ccccc2)C[C@H]1CN(CCc1ccc(F)cc1)C(=O)c1cn2cc(F)cnc2n1)C(C)(C)C [Compound 112] | < 250 nM |
| < 25 nM | < 25 nM | < 250 nM | CN[C@@H](C)C(=O)N[C@H](C(=O)N1CCC[C@H]1CN(CCc1ccc(F)cc1)C(=O)c1cn2c(n1)CCC2)C1CCCCC1 [Compound 113] | < 50 nM |
| < 25 nM | < 25 nM | < 25 nM | CN[C@@H](C)C(=O)N[C@H](C(=O)N1C[C@@H](Oc2ccc(F)cc2)C[C@H]1CN(CCc1ccc(F)cc1)C(=O)c1cn2c(n1)CCC2)[C@@H](C)OC [Compound 114] | < 50 nM |

Reference: patent US9284350B2, “IAP BIR domain binding compounds” (Pharmascience Inc., priority 2010, dated 2016)
